Measured values reported in ChEMBL document CHEMBL4325862, “Identification of novel quinazoline derivatives as potent antiplasmodial agents” (Eur J Med Chem, 2019).

Assays:
Plasmodium falciparum [1] = assay: Antiplasmodial activity against asynchronous form of Plasmodium falciparum 3D7 infected in human erythrocytes assessed as parasite growth inhibition after 48 hrs by SYBR green1 staining based flow cytometry; format: functional, organism-based; settings: 3D7, 48 h
Plasmodium falciparum [2] = assay: Antiplasmodial activity against asynchronous form of Plasmodium falciparum 3D7 infected in human erythrocytes assessed as parasite growth inhibition at 10 uM after 48 hrs by SYBR green1 staining based flow cytometry relative to control; format: functional; settings: 3D7, 48 h
[3] = target: DNA (cytosine-5)-methyltransferase 1 (Homo sapiens, UniProt P26358); assay: Inhibition of recombinant human DNMT1 using biotinylated DNA duplex as substrate measured after 2 hrs in presence of Adomet/[methyl-3H]Adomet by topcount method
[4] = target: DNA (cytosine-5)-methyltransferase 3A (Homo sapiens, UniProt Q9Y6K1); assay: Inhibition of recombinant human DNMT3a C-terminal catalytic domain (623 to 908 residues) using 5'-biotinylated/3'-FAM-oligonucleotide as substrate measured after 1 hr in presence of Adomet by fluorescence assay
Histone deacetylase 1 = Histone deacetylase 1 (Homo sapiens, UniProt Q13547); assay: Inhibition of recombinant human HDAC1 using RHK-K(Ac) as substrate by homogeneous fluorescence release assay
[5] = target: T1, Protein deacetylase HDAC6 (Homo sapiens, UniProt Q9UBN7); assay: Inhibition of recombinant human HDAC6 using RHK-K(Ac) as substrate by homogeneous fluorescence release assay
T1 sequence (Q9UBN7 whole entry): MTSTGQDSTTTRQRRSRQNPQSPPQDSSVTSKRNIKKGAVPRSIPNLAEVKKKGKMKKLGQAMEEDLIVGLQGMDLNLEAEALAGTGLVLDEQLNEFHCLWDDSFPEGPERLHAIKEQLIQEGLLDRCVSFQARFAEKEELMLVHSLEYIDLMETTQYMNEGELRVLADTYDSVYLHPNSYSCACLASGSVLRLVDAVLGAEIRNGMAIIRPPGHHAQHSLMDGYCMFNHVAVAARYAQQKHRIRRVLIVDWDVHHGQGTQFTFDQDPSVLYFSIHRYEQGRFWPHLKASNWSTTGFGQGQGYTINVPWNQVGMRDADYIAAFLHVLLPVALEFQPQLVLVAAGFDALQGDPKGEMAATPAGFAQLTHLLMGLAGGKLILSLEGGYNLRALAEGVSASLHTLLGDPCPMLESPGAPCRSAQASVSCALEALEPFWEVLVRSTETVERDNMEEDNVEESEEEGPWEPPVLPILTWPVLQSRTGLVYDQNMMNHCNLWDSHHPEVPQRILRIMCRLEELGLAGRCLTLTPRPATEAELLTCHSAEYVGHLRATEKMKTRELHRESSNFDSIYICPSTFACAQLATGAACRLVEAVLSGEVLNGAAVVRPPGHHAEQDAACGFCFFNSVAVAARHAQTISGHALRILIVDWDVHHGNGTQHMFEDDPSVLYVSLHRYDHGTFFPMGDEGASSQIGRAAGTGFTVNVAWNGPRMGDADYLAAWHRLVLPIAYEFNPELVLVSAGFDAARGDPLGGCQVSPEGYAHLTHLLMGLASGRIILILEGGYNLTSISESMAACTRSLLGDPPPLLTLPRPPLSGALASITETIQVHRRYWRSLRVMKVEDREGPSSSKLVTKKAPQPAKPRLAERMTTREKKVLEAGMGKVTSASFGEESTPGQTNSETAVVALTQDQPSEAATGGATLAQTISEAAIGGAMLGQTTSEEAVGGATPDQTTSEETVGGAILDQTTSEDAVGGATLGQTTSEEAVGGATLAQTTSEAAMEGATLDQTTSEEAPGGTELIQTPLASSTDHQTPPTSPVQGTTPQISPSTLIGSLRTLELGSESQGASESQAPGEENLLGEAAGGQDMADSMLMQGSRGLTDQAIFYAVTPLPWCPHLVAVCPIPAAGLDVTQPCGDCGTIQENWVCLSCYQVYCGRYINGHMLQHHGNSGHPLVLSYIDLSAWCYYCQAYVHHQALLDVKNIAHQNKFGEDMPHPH

Histone deacetylase 4 = Histone deacetylase 4 (Homo sapiens, UniProt P56524); assay: Inhibition of recombinant human HDAC4 using Boc-Lys(trifluoroacetyl)-AMC as substrate by homogeneous fluorescence release assay
Plasmodium falciparum [6] = assay: Antiplasmodial activity against asynchronous form of Plasmodium falciparum W2 infected in human erythrocytes assessed as parasite growth inhibition after 48 hrs by SYBR green1 staining based flow cytometry; format: functional, organism-based; settings: W2, 48 h
[7] = Selectivity index, ratio of IC50 for mouse spleen cells to IC50 for asynchronous form of Plasmodium falciparum 3D7 infected in human erythrocytes; format: toxicity, cell-based; settings: read-out: Ratio IC50
Plasmodium falciparum [8] = assay: Antiplasmodial activity against Plasmodium falciparum Dd2 infected in human erythrocytes assessed as reduction in [3H]-hypoxanthine incorporation measured after 48 hrs by microbeta liquid scintillation counting method; format: functional, organism-based
[9] = Cytotoxicity against mouse spleen cells; format: cell-based
HFF = assay: Cytotoxicity against HFF; format: cell-based; settings: Homo sapiens

Chain of Histone deacetylase 4 (P56524 whole entry): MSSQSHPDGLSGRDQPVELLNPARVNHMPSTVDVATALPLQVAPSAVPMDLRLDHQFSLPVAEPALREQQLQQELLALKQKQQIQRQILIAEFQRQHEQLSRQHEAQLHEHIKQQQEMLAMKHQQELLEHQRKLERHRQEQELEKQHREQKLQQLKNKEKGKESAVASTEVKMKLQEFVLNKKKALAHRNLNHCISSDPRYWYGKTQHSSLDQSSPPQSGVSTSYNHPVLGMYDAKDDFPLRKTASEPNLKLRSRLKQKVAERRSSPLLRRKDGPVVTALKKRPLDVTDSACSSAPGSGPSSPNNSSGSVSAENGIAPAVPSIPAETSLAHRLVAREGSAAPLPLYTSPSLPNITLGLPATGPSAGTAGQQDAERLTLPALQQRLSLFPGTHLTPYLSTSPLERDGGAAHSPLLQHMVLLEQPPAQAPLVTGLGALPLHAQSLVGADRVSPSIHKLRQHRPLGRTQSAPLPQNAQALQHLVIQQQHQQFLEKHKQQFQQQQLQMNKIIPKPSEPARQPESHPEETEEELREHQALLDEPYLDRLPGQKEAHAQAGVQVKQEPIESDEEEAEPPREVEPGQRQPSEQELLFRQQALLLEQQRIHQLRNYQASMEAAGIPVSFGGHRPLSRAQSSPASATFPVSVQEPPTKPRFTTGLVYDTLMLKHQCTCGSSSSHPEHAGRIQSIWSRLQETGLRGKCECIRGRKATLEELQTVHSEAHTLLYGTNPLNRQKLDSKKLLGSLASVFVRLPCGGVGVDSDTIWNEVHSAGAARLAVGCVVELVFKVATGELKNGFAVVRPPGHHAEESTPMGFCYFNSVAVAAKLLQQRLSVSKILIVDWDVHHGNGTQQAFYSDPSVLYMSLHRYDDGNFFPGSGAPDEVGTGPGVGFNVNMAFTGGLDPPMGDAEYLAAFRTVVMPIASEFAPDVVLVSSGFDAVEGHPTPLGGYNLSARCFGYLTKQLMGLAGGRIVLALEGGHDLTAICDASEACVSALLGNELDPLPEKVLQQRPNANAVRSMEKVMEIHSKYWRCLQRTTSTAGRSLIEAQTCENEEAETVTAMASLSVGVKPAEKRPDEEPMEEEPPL
Chain of DNA (cytosine-5)-methyltransferase 1 (P26358 whole entry, the tested form may be a part): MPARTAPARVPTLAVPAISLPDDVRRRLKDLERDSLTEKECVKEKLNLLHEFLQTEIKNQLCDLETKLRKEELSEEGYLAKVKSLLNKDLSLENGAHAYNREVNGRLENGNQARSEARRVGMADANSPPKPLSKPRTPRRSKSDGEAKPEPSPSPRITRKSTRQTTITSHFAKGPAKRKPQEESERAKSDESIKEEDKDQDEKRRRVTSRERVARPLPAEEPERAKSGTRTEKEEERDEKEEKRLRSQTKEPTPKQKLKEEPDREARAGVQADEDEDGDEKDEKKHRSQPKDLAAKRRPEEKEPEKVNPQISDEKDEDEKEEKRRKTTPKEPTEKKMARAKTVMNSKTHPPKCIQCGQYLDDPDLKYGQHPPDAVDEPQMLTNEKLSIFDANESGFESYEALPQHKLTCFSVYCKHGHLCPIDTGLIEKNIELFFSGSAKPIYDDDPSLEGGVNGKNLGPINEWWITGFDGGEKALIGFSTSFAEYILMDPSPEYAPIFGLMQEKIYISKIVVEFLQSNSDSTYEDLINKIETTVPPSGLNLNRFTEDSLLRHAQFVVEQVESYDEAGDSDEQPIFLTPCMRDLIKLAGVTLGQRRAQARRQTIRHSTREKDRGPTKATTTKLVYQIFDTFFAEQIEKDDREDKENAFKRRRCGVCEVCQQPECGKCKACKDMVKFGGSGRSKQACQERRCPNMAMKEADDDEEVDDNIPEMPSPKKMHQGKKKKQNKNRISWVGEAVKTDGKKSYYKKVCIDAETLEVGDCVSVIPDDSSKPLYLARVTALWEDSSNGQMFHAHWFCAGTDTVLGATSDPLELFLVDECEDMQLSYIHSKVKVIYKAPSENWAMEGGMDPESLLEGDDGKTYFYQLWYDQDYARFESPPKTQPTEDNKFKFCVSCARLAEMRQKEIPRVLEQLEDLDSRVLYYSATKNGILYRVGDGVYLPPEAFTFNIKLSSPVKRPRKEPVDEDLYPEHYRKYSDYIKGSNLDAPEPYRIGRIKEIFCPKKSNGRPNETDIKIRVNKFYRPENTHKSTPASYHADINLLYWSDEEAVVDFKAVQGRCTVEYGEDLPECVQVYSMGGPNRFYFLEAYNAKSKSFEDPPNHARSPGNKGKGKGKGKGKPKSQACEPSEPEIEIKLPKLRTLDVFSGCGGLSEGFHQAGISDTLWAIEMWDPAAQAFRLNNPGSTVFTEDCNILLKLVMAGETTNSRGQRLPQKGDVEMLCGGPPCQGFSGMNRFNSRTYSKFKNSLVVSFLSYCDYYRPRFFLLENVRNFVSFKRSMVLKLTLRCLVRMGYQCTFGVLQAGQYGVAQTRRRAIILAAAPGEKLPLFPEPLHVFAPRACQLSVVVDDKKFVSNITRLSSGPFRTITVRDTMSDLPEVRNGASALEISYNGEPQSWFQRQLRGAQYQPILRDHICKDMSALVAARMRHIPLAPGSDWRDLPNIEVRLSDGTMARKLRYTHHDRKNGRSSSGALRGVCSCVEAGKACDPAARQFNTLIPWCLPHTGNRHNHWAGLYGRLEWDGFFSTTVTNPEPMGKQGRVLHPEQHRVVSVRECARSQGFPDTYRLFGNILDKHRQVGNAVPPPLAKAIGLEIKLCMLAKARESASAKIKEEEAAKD
Chain of Histone deacetylase 1 (Q13547 whole entry): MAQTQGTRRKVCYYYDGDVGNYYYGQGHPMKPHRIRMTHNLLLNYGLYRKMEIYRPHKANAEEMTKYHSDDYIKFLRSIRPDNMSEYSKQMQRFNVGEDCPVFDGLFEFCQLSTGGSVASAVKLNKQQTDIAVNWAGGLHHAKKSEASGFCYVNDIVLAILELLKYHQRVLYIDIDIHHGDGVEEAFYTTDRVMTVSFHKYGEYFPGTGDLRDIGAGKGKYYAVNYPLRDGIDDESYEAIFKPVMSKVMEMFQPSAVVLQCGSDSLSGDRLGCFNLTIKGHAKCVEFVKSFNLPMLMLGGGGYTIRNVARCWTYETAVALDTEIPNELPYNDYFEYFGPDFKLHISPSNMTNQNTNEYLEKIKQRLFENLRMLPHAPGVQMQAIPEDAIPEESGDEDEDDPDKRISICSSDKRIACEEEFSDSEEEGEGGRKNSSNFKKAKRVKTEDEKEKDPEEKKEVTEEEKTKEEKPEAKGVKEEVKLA
Chain of DNA (cytosine-5)-methyltransferase 3A (Q9Y6K1 whole entry, looked up, the tested form may be a part): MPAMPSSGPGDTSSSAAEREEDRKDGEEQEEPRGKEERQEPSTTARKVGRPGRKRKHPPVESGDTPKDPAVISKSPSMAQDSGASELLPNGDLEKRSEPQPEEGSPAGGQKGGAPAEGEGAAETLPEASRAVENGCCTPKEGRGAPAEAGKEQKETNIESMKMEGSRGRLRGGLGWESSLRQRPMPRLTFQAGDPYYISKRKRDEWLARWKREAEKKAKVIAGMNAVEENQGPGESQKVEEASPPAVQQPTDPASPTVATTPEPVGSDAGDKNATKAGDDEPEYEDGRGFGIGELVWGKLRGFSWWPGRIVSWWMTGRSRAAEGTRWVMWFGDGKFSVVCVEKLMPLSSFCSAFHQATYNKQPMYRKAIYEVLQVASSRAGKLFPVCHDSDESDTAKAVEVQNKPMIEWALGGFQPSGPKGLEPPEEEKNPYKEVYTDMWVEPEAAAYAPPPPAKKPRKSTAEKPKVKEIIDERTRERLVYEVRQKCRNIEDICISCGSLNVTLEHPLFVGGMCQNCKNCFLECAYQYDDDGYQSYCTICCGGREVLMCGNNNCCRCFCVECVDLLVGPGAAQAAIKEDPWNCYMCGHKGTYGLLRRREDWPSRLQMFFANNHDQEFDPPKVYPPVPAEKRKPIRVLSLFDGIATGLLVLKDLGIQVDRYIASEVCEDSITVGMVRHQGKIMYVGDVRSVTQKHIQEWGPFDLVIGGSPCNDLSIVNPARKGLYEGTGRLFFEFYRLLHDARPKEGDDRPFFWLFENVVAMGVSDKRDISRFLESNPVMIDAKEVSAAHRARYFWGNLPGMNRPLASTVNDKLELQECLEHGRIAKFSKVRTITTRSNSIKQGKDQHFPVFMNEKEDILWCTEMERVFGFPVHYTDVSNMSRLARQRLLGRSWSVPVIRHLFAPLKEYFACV

| SMILES | IC50 (Plasmodium falciparum [1]) | inhibition at 10 µM (Plasmodium falciparum [2]) | also measured |
| --- | --- | --- | --- |
| COc1ccc2c(NC3CCN(Cc4ccccc4)CC3)nc(N3CCN(c4ccccc4)CC3)nc2c1 | 83 nM | 100% | EC50 [3]: > 100000 nM; EC50 [4]: 4600 nM |
| O=C1/C(=C/c2ccc(O)c(Br)c2)CN(Cc2ccccc2)C/C1=C\c1ccc(O)c(Br)c1 | > 1000 nM | 100% |  |
| O=C(Cc1ccccc1)Nc1ccc(C(=O)NO)nc1 | > 1000 nM | 97.8% | IC50 (Histone deacetylase 1): 200 nM; IC50 [5]: 37 nM; IC50 (Histone deacetylase 4): 11000 nM |
| COc1ccc2nc(N3CCN(c4ccccc4)CC3)nc(NC3CCN(Cc4ccccc4)CC3)c2c1 | 52.5 nM | 100% | EC50 [3]: > 100000 nM; EC50 [4]: 5400 nM |
| O=C(CCCCSc1nc(-c2ccc(Cl)cc2)cc(=O)[nH]1)NO | 88.6 nM | 98% |  |
| CCOC(=O)C1=CN(Cc2ccccc2)C=C(C(=O)OCC)C1c1ccccc1 | > 1000 nM | 97.2% |  |
| Nc1ccccc1NC(=O)c1ccc(CNC(=O)OCc2cccnc2)cc1 [ENTINOSTAT] | > 1000 nM | 50.9% |  |
| NC1CC1c1ccc(NC(=O)CCCCNC(=O)c2ccc(O)c3ncccc23)cc1 (stereo unspecified) | > 1000 nM | 97.8% |  |
| O=C(/C=C/c1ccccc1CSc1nc(O)cc(-c2ccccc2)n1)NO |  | 2.8% |  |
| c1ccc(CN2CCC(Nc3nc(N4CCN(c5ccccc5)CC4)nc4ccccc34)CC2)cc1 | 326 nM | 100% |  |
| O=C(/C=C/c1ccc(NC(=O)Cc2cccc3ccccc23)cn1)NO | 10.2 to 21.1 nM | 96.8 to 97.9% | IC50 (Plasmodium falciparum [6]): 15.3 nM; selectivity ratio [7]: 9; IC50 (Histone deacetylase 1): 100 nM; IC50 [5]: 15 nM; IC50 (Histone deacetylase 4): 2700 nM; IC50 (Plasmodium falciparum [8]): 13.5 nM; IC50 [9]: 120 nM; IC50 (HFF): > 10000 nM |
| NC1CC1c1ccc(NC(=O)[C@H](Cc2ccccc2)NC(=O)OCc2ccccc2)cc1 (stereo partly specified) | > 1000 nM | 64.6% |  |
| CC1=C(/C=C/C(C)=C/C=C/C(C)=C/C(=O)Nc2ccccc2N)C(C)(C)CCC1 | > 1000 nM | 97.1% |  |
| O=C1/C(=C/c2ccc(O)c(Br)c2)CSC/C1=C\c1ccc(O)c(Br)c1 | 952 nM | 99.5% |  |
| O=C(Cc1cccc2ccccc12)Nc1ccc(C(=O)NO)nc1 | > 1000 nM | 97.9% | IC50 (Histone deacetylase 1): 300 nM; IC50 [5]: 26 nM; IC50 (Histone deacetylase 4): > 50000 nM |
| COc1cc2nc(N3CCCN(C)CC3)nc(NC3CCN(Cc4ccccc4)CC3)c2cc1OC | 20.8 to 23.7 nM | 100% | IC50 (Plasmodium falciparum [6]): 16.7 nM; selectivity ratio [7]: 23; IC50 (Plasmodium falciparum [8]): 9.7 nM; IC50 [9]: 555 nM; IC50 (HFF): 5000 nM |
| NC1CC1c1ccc(NC(=O)CCCNC(=O)c2ccc(O)c3ncccc23)cc1 (stereo unspecified) |  | 45.3% |  |
| COc1cc2c(NC3CCN(C(C)C)CC3)nc(C3CCCCC3)nc2cc1OCCCN1CCCC1 | 67.9 to 68.7 nM | 100% | IC50 (Plasmodium falciparum [6]): 38.5 nM; selectivity ratio [7]: 21; IC50 (Plasmodium falciparum [8]): 16.8 nM; IC50 [9]: 1440 nM; IC50 (HFF): 2290 nM |
| CC(C)N(CCCNC(=O)Nc1ccc(C(C)(C)C)cc1)C[C@H]1O[C@@H](n2cnc3c(N)ncnc32)[C@H](O)[C@@H]1O |  | 9.7% |  |
| O=C(/C=C/c1ccc(Cc2nnc(Cc3cccc4ccccc34)o2)cc1)NO | 244 nM | 98% |  |
| CCOC(=O)c1c(C)nc2ccccc2c1O | > 1000 nM | 60.1% |  |

| SMILES | IC50 (Plasmodium falciparum [1]) | inhibition at 10 µM (Plasmodium falciparum [2]) | also measured |
| --- | --- | --- | --- |
| NC1CC1c1ccc(NC(=O)CCCCCNC(=O)c2ccc(O)c3ncccc23)cc1 (stereo unspecified) | > 1000 nM | 96.7% |  |
| O=c1[nH]c(SCCN2CCN(c3ccccn3)CC2)nc2ccccc12 |  | 2% |  |
| O=C(CCCCCSc1nc(-c2ccc(-c3ccccc3)cc2)cc(=O)[nH]1)NO | 50.9 nM | 97.4% | IC50 (Histone deacetylase 1): 100 nM; IC50 [5]: 9 nM; IC50 (Histone deacetylase 4): > 50000 nM |
| NC1CC1c1ccc(NC(=O)c2ccc(-c3ccccc3)cc2)cc1 (stereo unspecified) | > 1000 nM | 97.5% |  |
| BrCCCc1nc(-c2ccc(Br)cc2)no1 |  | 18.7% |  |
| O=S(=O)(c1cccc(C(F)(F)F)c1)N1c2ccccc2-n2cccc2C1c1cccnc1 (stereo unspecified) | 671 nM | 99.5% |  |
| O=C(O)c1ccc(O)c2ncccc12 |  | 25.4% |  |
| NC1CC1c1ccc(NC(=O)c2ccc(O)c3ncccc23)cc1 (stereo unspecified) | 776 to 1000 nM | 98.9 to 100% |  |
| CC(C(=O)Nc1cccc(/N=C/c2c(O)ccc3ccccc23)c1)c1ccccc1 (stereo unspecified) [SALERMIDE] | > 1000 nM | 72.3% |  |
| Cc1cc(C)c(CNC(=O)c2cnn(-c3ccccc3)c2C)c(=O)[nH]1 |  | 14.7% |  |
| c1ccc(CCCN2CCC(Nc3nc(N4CCN(c5ccccc5)CC4)nc4ccccc34)CC2)cc1 | 75.1 nM | 100% | EC50 [3]: > 100000 nM; EC50 [4]: 5100 nM |
| O=C(CCCCSc1nc(-c2ccc3ccccc3c2)cc(=O)[nH]1)NO | 25.2 nM | 97.9% | IC50 (Histone deacetylase 1): 1700 nM; IC50 [5]: 12 nM; IC50 (Histone deacetylase 4): > 50000 nM |
| CC1=NN(c2ccc(C(=O)O)cc2)C(=O)/C1=C\c1ccc(-c2cc(C)c(C)cc2[N+](=O)[O-])o1 |  | 12.8% |  |
| COc1cc2nc(N3CCN(c4ccccc4)CC3)nc(NC3CCN(Cc4ccccc4)CC3)c2cc1OC | 37.8 nM | 100% | EC50 [3]: > 100000 nM; EC50 [4]: 5400 nM |
| CC(C)(C)OC(=O)Nc1cccc(C(=O)/C=C/c2ccc(/C=C/C(=O)NO)cc2)c1 | 422 nM | 100% |  |
| c1ccc(CCN2CCC(Nc3nc(N4CCN(c5ccccc5)CC4)nc4ccccc34)CC2)cc1 | 98.9 nM | 100% | EC50 [3]: > 100000 nM; EC50 [4]: 5400 nM |
| O=c1nc2oc3ccc4ccccc4c3cc-2c(=O)n1-c1ccccc1 | > 1000 nM | 80.5% |  |
| c1ccc(N2CCN(c3nc(NC4CCN(Cc5ccc6ccccc6c5)CC4)c4ccccc4n3)CC2)cc1 | 138 nM | 100% | EC50 [3]: > 100000 nM; EC50 [4]: 2400 nM |
| CCCCCCCCCCCCCCC=C(C(=O)OCC)C(=O)OCC | > 1000 nM | 92.7% |  |
| O=C(CCCCCSc1nc(-c2ccc3ccccc3c2)cc(=O)[nH]1)NO | 79.4 nM | 97.4% | IC50 (Histone deacetylase 1): 1000 nM; IC50 [5]: 17 nM; IC50 (Histone deacetylase 4): > 50000 nM |
| Cn1c(/C=C/C(=O)NO)ccc1/C=C/C(=O)c1cccc(Cl)c1 | > 1000 nM | 89.6% |  |
